According to US8829007B2 (priority 2009, dated 2014):
Read-outs that look alike come from different tables or passages of the source.

Tested on: influenza A virus (A/PR/8/34)
Experiment: microbe, parasite or virus in culture
Assay type: cell-based
[1] = Influenza A virus, PR/8, MDCK, MDCK cells infected with A/PR/8/34, survival of infected cells, class symbols, read-out: IC50 (mean all)
[2] = Influenza A virus, PR/8, MDCK, MDCK cells infected with A/PR/8/34, cell protection (CPE), read-out: IC50 (mean all)
[3] = Influenza A virus, PR/8, MDCK, mean all, A/PR/8/34 infected MDCK cells, CPE assay, read-out: IC50

## NC1CCCCC1Nc1nc(-c2c[nH]c3ncccc23)ncc1F (stereo not drawn) [Compound 206, N-[5-fluoro-2-(1H-pyrrolo[5,4-b]pyridin-3-yl)pyrimidin-4-yl]cyclohexane-cis-1,2-diamine]
MDCK cells infected with A/PR/8/34, cell protection (CPE), read-out: IC50 (mean all)
  IC50: < 5 µM

## O=C(OCC1CCOC1)N1CC[C@H](Nc2nc(-c3c[nH]c4ncc(Cl)cc34)ncc2F)C1 (stereo partly shown) [Compound 484]
[1]
  IC50: 5 to 20 µM

## CN(C)C(=O)N1CCC[C@@H](CNc2nc(-c3c[nH]c4ncccc34)ncc2F)C1 [Compound 228, (S)-3-((5-fluoro-2-(1H-pyrrolo[2,3-b]pyridin-3-yl)pyrimidin-4-ylamino)methyl)-N,N-dimethylpiperidine-1-carboxamide]
[2]
  IC50: 5 to 20 µM

## COCCC(=O)N1CCC[C@H](Nc2nc(-c3c[nH]c4ncc(Cl)cc34)ncc2F)C1 [Compound 488]
read-out: IC50 (mean all)
  IC50: > 20 µM

## CC(C)OC(=O)N1CCC[C@@H](CNc2nc(-c3c[nH]c4ncc(Cl)cc34)ncc2F)C1 [Compound 35, (S)-isopropyl 3-((2-(5-chloro-1H-pyrrolo[2,3-b]pyridin-3-yl)-5-fluoropyrimidin-4-ylamino)methyl)piperidine-1-carboxylate]
[2]
  IC50: > 20 µM

## Cc1cccc(CN2CCC[C@@H](CNc3nc(-c4c[nH]c5ncc(Cl)cc45)ncc3F)C2)c1 [Compound 137, (S)-2-(5-chloro-1H-pyrrolo[2,3-b]pyridin-3-yl)-5-fluoro-N-((1-(3-methylbenzyl)piperidin-3-yl)methyl)pyrimidin-4-amine]
[2]
  IC50: > 20 µM

## COC(=O)c1ccc(OC(=O)N2CCC[C@H](CNc3nc(-c4c[nH]c5ncc(Cl)cc45)ncc3F)C2)cc1 [Compound 63, (R)-4-(methoxycarbonyl)phenyl 3-((2-(5-chloro-1H-pyrrolo[2,3-b]pyridin-3-yl)-5-fluoropyrimidin-4-ylamino)methyl)piperidine-1-carboxylate]
Influenza A virus, PR/8, MDCK, read-out: IC50 (mean all)
  IC50: > 20 µM

## O=C(c1ccccc1)N1CCC[C@H](CNc2nc(-c3c[nH]c4ncccc34)ncc2F)C1 [Compound 271, (R)-(3-((5-fluoro-2-(1H-pyrrolo[2,3-b]pyridin-3-yl)pyrimidin-4-ylamino)methyl)piperidin-1-yl)(phenyl)methanone]
[2]
  IC50: 5 to 20 µM

## CCNC(=O)N1CCC[C@H](CNc2nc(-c3c[nH]c4ncccc34)ncc2F)C1 [Compound 275, (R)—N-ethyl-3-((5-fluoro-2-(1H-pyrrolo[2,3-b]pyridin-3-yl)pyrimidin-4-ylamino)methyl)piperidine-1-carboxamide]
[2]
  IC50: 5 to 20 µM

## CCNC(=O)[C@H]1CCCC[C@@H]1Nc1nc(-c2c[nH]c3ncc(Cl)cc23)ncc1F [Compound 521, (1S,2S)-2-(2-(5-chloro-1H-pyrrolo[2,3-b]pyridin-3-yl)-5-fluoropyrimidin-4-ylamino)-N-ethylcyclohexanecarboxamide]
[1]
  IC50: 5 to 20 µM

## O=C(N[C@@H]1CCCC[C@H]1Nc1nc(-c2c[nH]c3ncccc23)ncc1F)c1ccccc1 [Compound 360, N-[(1R,2R)-2-[[5-fluoro-2-(1H-pyrrolo[2,3-b]pyridin-3-yl)pyrimidin-4-yl]amino]cyclohexyl]benzamide]
[3]
  IC50: > 20 µM

## CCCS(=O)(=O)N1CC[C@H](Nc2nc(-c3c[nH]c4ncc(Cl)cc34)ncc2F)C1 [Compound 410, (S)-2-(5-chloro-1H-pyrrolo[2,3-b]pyridin-3-yl)-5-fluoro-N-(1-(propylsulfonyl)pyrrolidin-3-yl)pyrimidin-4-amine]
[3]
  IC50: 5 to 20 µM

## COCC(=O)N1CC(Nc2nc(-c3c[nH]c4ncc(Cl)cc34)ncc2F)C1 [Compound 468]
[3]
  IC50: 5 to 20 µM

## CC(=O)c1cccc(NC(=O)N2CCC[C@H](CNc3nc(-c4c[nH]c5ncc(Cl)cc45)ncc3F)C2)c1 [Compound 77, (R)-3-((2-(5-chloro-1H-pyrrolo[2,3-b]pyridin-3-yl)-5-fluoropyrimidin-4-ylamino)methyl)-N-(3-ethanoylphenyl)piperidine-1-carboxamide]
[2]
  IC50: 5 to 20 µM

## CCCCS(=O)(=O)N1CCC(Nc2nc(-c3c[nH]c4ncc(Cl)cc34)ncc2F)C1 (stereo not shown) [Compound 406]
Mean all, A/PR/8/34 infected MDCK cells, CPE assay, read-out: IC50
  IC50: > 20 µM

## 1-[trans-2-[[2-(5-chloro-1H-pyrrolo[2,3-b]pyridin-3-yl)-5-fluoro-pyrimidin-4-yl]amino]cyclohexyl]-3-propyl-urea [Compound 350]
read-out: IC50
  IC50: 5 to 20 µM
